What all share (test): In vitro metalloprotease inhibition, fluorogenic peptide assay
Common to all, as to format: biochemical

One assay deals with T1, recombinant human MMP-1 (Homo sapiens, UniProt P03956).
T1 construct: made in house; host or cells: transfected HT-1080 cells
T1 sequence (P03956 100-469): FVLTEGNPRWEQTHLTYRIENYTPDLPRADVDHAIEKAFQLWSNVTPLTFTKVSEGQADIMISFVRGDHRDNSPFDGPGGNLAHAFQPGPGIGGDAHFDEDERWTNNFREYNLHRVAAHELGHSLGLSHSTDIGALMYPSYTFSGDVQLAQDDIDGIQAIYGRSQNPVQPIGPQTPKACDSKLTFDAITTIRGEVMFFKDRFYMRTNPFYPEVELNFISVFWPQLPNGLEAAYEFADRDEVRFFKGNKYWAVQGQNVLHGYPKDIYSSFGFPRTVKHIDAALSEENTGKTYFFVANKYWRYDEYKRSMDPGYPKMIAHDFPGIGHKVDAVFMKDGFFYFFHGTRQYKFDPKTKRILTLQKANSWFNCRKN
The following applies: for IC50: APMA-activated enzyme, MCA peptide substrate 4 μM, room temperature, pH 7.5; for inhibitory activity against MMP-1 (in words): discussion of Table 51. As for the experimental part: (§1) Briefly, 4-aminophenylmercuric acetate (APMA) or trypsin activated MMPs were incubated with various concentrations of the inhibitor compound at room temperature for 5 minutes.
(§2) More specifically, recombinant human MMP-13 and MMP-1 enzymes were prepared in laboratories of the assignee. MMP-13 was expressed in baculovirus as a proenzyme, and purified first over a heparin agarose column and then over a chelating zinc chloride column. The proenzyme was activated by APMA for use in the assay. MMP-1 expressed in transfected HT-1080 cells was provided by Dr. Howard Welgus of Washington University, St. Louis, Mo. The enzyme was also activated using APMA and was then purified over a hydroxamic acid column.
(§3) MCA-ProLeuGlyLeuDpaAlaArgNH^2, wherein MCA is methoxycoumarin and Dpa is 3-(2,4-dinitrophenyl)-L-2,3-diaminopropionyl alanine.
(§4) The buffer used for assays contained 100 mM Tris-HCl, 100 mM NaCl, 10 mM CaCl2 and 0.05 percent polyethyleneglycol (23) lauryl ether at a pH value of 7.5.

The target of a further assay is T2, recombinant human MMP-13 (Homo sapiens, UniProt P45452).
T2 construct: made in house
As to conditions: for IC50: APMA-activated enzyme, MCA peptide substrate 4 μM, room temperature, pH 7.5; for inhibitory activity against MMP-13 (in words): discussion of Table 51. As for the experimental part:
as §1, §2, §3, §4

The target of a further assay is T3, MMP-2 (Homo sapiens, UniProt P08253).
T3 sequence (P08253 110-660): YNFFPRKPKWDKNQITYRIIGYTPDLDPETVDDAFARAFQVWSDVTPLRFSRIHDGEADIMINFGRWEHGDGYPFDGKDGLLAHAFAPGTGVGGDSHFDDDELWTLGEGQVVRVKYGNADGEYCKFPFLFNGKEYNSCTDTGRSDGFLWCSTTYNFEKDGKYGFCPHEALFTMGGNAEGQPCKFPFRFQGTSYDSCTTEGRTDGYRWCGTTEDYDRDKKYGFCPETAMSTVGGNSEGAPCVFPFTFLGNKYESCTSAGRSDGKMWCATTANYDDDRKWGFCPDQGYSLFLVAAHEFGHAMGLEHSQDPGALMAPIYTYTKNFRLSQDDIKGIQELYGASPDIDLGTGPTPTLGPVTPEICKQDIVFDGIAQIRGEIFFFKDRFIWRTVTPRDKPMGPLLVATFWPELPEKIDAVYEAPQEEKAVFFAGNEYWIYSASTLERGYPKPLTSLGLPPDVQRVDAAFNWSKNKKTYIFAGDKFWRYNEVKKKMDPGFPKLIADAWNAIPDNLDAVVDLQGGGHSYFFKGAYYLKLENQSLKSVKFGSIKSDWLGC
As to conditions: for IC50: MCA peptide substrate 4 μM, room temperature, pH 7.5. As for the experimental part:
as §1, §3, §4

A further assay addresses MMP-9 (Homo sapiens, UniProt P14780). The following applies: MCA peptide substrate 4 μM, room temperature, pH 7.5. As for the experimental part:
as §1, §3, §4

Structures are written as SMILES.

By IC50 is commonly meant the point on the concentration scale where inhibition reaches its midpoint.

MMP-9, sequence (P14780 107-707 limits assumed, species assumed): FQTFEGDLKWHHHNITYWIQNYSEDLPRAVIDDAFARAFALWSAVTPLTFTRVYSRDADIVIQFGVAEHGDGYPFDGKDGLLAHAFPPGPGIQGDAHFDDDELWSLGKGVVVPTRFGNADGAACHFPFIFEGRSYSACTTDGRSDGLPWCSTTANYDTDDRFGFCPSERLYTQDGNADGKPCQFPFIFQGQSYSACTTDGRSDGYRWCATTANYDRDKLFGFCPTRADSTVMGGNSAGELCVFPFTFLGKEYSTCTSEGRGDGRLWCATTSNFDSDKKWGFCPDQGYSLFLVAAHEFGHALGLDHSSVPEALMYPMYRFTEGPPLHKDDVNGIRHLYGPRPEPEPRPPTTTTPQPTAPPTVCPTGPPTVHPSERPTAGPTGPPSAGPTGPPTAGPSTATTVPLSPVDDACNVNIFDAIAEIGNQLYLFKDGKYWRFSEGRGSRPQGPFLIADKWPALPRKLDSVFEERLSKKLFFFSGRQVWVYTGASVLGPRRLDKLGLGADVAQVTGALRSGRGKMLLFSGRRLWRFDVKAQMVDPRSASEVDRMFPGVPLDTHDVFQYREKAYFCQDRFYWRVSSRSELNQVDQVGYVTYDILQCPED

In the case of `COCC(O)(CS(=O)(=O)c1ccc(Oc2ccccc2)cc1)C(=O)NO` (centres unmarked) [Example 6, N,2-dihydroxy-2-(methoxymethyl)-3-[(4-phenoxyphenyl)sulfonyl]propanamide], the IC50 on recombinant human MMP-1 is 8 µM; on recombinant human MMP-13, 30 nM; against MMP-2 it was 14.8 nM.
For the compound `COc1ccc(S(=O)(=O)CC(O)C(=O)NO)cc1` (centres unmarked) [Example 8, N,2-dihydroxy-3-[(4-methoxyphenyl)sulfonyl]propanamide], at recombinant human MMP-1, the IC50 was over 10 µM and the “inhibitory activity against MMP-1 (in words)” value is “relatively inactive”. For the same compound, on recombinant human MMP-13, the IC50 was 200 nM and the “inhibitory activity against MMP-13 (in words)” value is “only slightly better”.
Turning to `O=C(NO)[C@@H](O)CS(=O)(=O)c1ccc(Oc2ccccc2)cc1` [Example 10, (R)—N,2-dihydroxy-3-[(4-phenoxyphenyl)sulfonyl]propanamide], the IC50 amounted to 4 µM on recombinant human MMP-1, 1 nM on recombinant human MMP-13, 0.4 nM against MMP-2 and 18 nM at MMP-9.
Turning to `CCCCCc1ccc(C(=O)Nc2ccc(S(=O)(=O)CC(C)(O)C(=O)NO)cc2)cc1` (centres unmarked) [Example 14, N-[4-[[2-hydroxy-3-(hydroxyamino)-2-methyl-3-oxopropyl]sulfonyl]phenyl]pentylbenzamide], the IC50 on recombinant human MMP-1 was over 10 µM; at recombinant human MMP-13 it was 0.5 nM; against MMP-2, under 0.1 nM.
For `CC(O)(CS(=O)(=O)c1ccc(NC(=O)Nc2ccccc2)cc1)C(=O)NO` (centres unmarked) [Example 15, N,2-dihydroxy-2-methyl-3-[[4-[((phenylamino)carbonyl)amino]phenyl]sulfonyl]propanamide], in that order: over 10 µM, 3200 nM and 87 nM.
For `CC(C)CC(=O)Nc1ccc(S(=O)(=O)CC(C)(O)C(=O)NO)cc1` (centres unmarked) [Example 17, N-[4-[[2-hydroxy-3-(hydroxyamino)-2-methyl-3-oxopropyl]sulfonyl]phenyl]-3-methylbutanamide], in that order: over 10 µM, 900 nM and 400 nM.
In the same order, the values of `CC(O)(CS(=O)(=O)c1ccc(NC(=O)c2ccc(Cl)cc2)cc1)C(=O)NO` (centres unmarked) [Example 18] are over 10 µM, 13 nM and 0.5 nM.
In the case of `Cc1ccccc1NC(=O)Nc1ccc(S(=O)(=O)CC(C)(O)C(=O)NO)cc1` (centres unmarked) [Example 19, N,2-dihydroxy-2-methyl-3-[[4-[[[(2-methylphenyl)amino]carbonyl]amino]phenyl]sulfonyl]propanamide], the results for the IC50 at recombinant human MMP-1, on recombinant human MMP-13 and on MMP-2 were over 10 µM, 10000 nM and 2600 nM, respectively.
In the same order, the values of `Cc1cccc(NC(=O)Nc2ccc(S(=O)(=O)CC(C)(O)C(=O)NO)cc2)c1` (centres unmarked) [Example 20, N,2-dihydroxy-2-methyl-3-[[4-[[[(3-methylphenyl)amino]carbonyl]amino]phenyl]sulfonyl]propanamide] are over 10 µM, 6600 nM and 300 nM.
In the same order, the values of `Cc1ccc(NC(=O)Nc2ccc(S(=O)(=O)CC(C)(O)C(=O)NO)cc2)cc1` (centres unmarked) [Example 21, N,2-dihydroxy-2-methyl-3-[[4-[[[(4-methylphenyl)amino]carbonyl]amino]phenyl]sulfonyl]propanamide] are over 10 µM, 3600 nM and 34 nM.
In the same order, the values of `CC(O)(CS(=O)(=O)c1ccc(NC(=O)c2ccc(Cl)nc2)cc1)C(=O)NO` (centres unmarked) [Example 22, 6-chloro-N-(4-[[2-hydroxy-3-(hydroxyamino)-2-methyl-3-oxopropyl]sulfonyl]phenyl]-3-pyridinecarboxamide] are over 10 µM, 280 nM and 6.7 nM.
Take `CCCCCCCOc1ccc(C(=O)Nc2ccc(S(=O)(=O)CC(C)(O)C(=O)NO)cc2)cc1` (centres unmarked) [Example 24, 4-(heptyloxy)-N-[4-[[2-hydroxy-3-(hydroxyamino)-2-methyl-3-oxopropyl]sulfonyl]phenyl]benzamide]: on recombinant human MMP-1, the IC50 was over 10 µM and the “inhibitory activity against MMP-1 (in words)” value is given as “lower than could be measured in the assay”. On recombinant human MMP-13, the IC50 is under 0.1 nM and the “inhibitory activity against MMP-13 (in words)” value is reported as “greater than could be measured in the assay”. The same compound came in with an IC50 against MMP-2 of under 0.1 nM. Further, at MMP-2 (discussion of Table 51), the “inhibitory activity against MMP-2 (in words)” value is on record as “greater than could be measured in the assay”.
For the compound `CCCCOc1ccc(C(=O)Nc2ccc(S(=O)(=O)CC(C)(O)C(=O)NO)cc2)cc1` (centres unmarked) [Example 25, 4-butoxy-N-[4-[[2-hydroxy-3-(hydroxyamino)-2-methyl-3-oxopropyl]sulfonyl]phenyl]benzamide], the IC50 at recombinant human MMP-1 is over 10 µM; at recombinant human MMP-13, 1.2 nM; at MMP-2, 0.2 nM.
Take `CCCc1ccc(C(=O)Nc2ccc(S(=O)(=O)CC(C)(O)C(=O)NO)cc2)cc1` (centres unmarked) [Example 26, N-[4-[[2-hydroxy-3-(hydroxyamino)-2-methyl-3-oxopropyl]-sulfonyl]phenyl]4-propylbenzamide]: the IC50 at recombinant human MMP-1 was over 10 µM; on recombinant human MMP-13, 1.2 nM; against MMP-2, 0.1 nM.
In the same order, the values of `COc1cccc(C(=O)Nc2ccc(S(=O)(=O)CC(C)(O)C(=O)NO)cc2)c1` (centres unmarked) [Example 27] are over 10 µM, 666 nM and 10 nM.
For `CCCCc1ccc(C(=O)Nc2ccc(S(=O)(=O)CC(C)(O)C(=O)NO)cc2)cc1` (centres unmarked) [Example 28, 4-butyl-N-[4-[[2-hydroxy-3-(hydroxyamino) -2-methyl-3-oxopropyl]-sulfonyl]phenyl]benzamide], in that order: over 10 µM, 0.8 nM and under 0.1 nM.
In the same order, the values of `CC(O)(CS(=O)(=O)c1ccc(NC(=O)c2cccc(F)c2)cc1)C(=O)NO` (centres unmarked) [Example 29] are over 10 µM, 80 nM and 1.8 nM.
On to `Cc1cccc(C(=O)Nc2ccc(S(=O)(=O)CC(C)(O)C(=O)NO)cc2)c1` (centres unmarked) [Example 30, N-[4-[[2-hydroxy-3-(hydroxyamino)-2-methyl-3-oxopropyl]sulfonyl]phenyl]-3-methylbenzamide], for which the 50% inhibitory concentration (IC50) is over 10 µM at recombinant human MMP-1, 316 nM on recombinant human MMP-13 and 20 nM at MMP-2.
In the same order, the values of `CC(O)(CS(=O)(=O)c1ccc(NC(=O)c2cccc(Cl)c2)cc1)C(=O)NO` (centres unmarked) [Example 31, 3-chloro-N-[4-[[2-hydroxy-3-(hydroxyamino)-2-methyl-3-oxopropyl]sulfonyl]phenyl]benzamide] are over 10 µM, 600 nM and 37.2 nM.
In the same order, the values of `CC(O)(CS(=O)(=O)c1ccc(NC(=O)c2ccc(F)c(F)c2)cc1)C(=O)NO` (centres unmarked) [Example 32, 3,4-difluoro-N-[4-[[2-hydroxy-3-(hydroxyamino)-2-methyl-3-oxopropyl]sulfonyl]phenyl]benzamide] are over 10 µM, 80 nM and 1.6 nM.
In the same order, the values of `CC(O)(CS(=O)(=O)c1ccc(NC(=O)c2cccc([N+](=O)[O-])c2)cc1)C(=O)NO` (centres unmarked) [Example 33] are over 10 µM, 1600 nM and 50 nM.
Take `CC(O)(CS(=O)(=O)c1ccc(NC(=O)c2cccc(NCCCCO)c2)cc1)C(=O)NO` (centres unmarked) [Example 34]: the IC50 on recombinant human MMP-1 was over 10 µM; on recombinant human MMP-13, 1600 nM; against MMP-2 it was 32.7 nM.
For `CC(O)(CS(=O)(=O)c1ccc(NC(=O)c2cccc(N)c2)cc1)C(=O)NO` (centres unmarked) [Example 35, 3-amino-N-[4-[[2-hydroxy-3-(hydroxyamino)-2-methyl-3-oxopropyl]-sulfonyl]phenyl]benzamide], in that order: over 10 µM, 290 nM and 6.7 nM.

The values above are taken from US6362183B1, “Aromatic sulfonyl alpha-hydroxy hydroxamic acid compounds” (G. D. Searle & Company, priority 1997, dated 2002).
